Laboratory results: patent US20090105278A1, “Selective inhibitors of human corticosteroid syntheses” (Universitat Des Saarlandes, priority 2004, published 2009)
Where a name gives a salt, the structure may show the parent alone. Read-outs that look alike come from different tables or passages of the source.

What was measured:
[1] = molecular target: T1, bovine adrenal CYP11B (Bos taurus, UniProt P15150); test: Percent inhibition of bovine CYP11B (adrenal mitochondria); conditions: corticosterone substrate 200 μM, inhibitor 1 μM; for inhibition at 1 µM: read-out: % Inhibition bovine bCYP11B, bovine adrenal mitochondria, 1 mg/ml protein; for % Inhibition bovine bCYP11B: bovine adrenal mitochondria, 1 mg/ml protein
T1 sequence (P15150 25-503): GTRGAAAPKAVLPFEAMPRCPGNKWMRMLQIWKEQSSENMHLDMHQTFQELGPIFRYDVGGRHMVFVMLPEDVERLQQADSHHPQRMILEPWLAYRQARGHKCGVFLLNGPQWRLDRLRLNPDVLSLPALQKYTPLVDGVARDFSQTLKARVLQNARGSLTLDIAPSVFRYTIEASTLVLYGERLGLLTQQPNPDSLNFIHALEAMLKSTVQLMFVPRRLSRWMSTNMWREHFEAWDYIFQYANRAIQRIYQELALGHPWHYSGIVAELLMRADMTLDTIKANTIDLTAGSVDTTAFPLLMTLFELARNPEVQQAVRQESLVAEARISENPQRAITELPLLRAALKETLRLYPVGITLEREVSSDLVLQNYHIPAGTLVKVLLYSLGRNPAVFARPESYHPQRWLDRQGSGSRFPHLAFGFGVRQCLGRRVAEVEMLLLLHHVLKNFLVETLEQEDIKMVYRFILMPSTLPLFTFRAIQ
Experimental: Bovine adrenal glands obtained freshly after slaughtering were stored in ice cold Tris-sucrose buffer (0.25 M sucrose, 0.05 M Tris; pH 7.4) until processed. After removing the appending adipose tissue, the adrenal medulla was carefully separated from the adrenal cortex using scissors. The pieces of adrenal cortex were coarsely comminuted with scissors, washed with Tris-sucrose buffer, weighed and finely comminuted in the above buffer (2 ml per g of tissue) with a hand mixer. Thereafter, the tissue was homogenized with an Ultra-Turrax mixer. For separating coarse cell debris and the nuclei, the homogenizate was centrifuged twice for 15 min at 900 g and 4° C. The supernatant was subsequently centrifuged for 35 min at 11,000 g for recovering the mitochondrial fraction. For purifying the mitochondrial fraction, the precipitate was resuspended in Tri-sucrose buffer and again centrifuged at 11,000 g for 35 min. This washing step was performed two times in total. After the last centrifugation, the pellet was resuspended in Tris-sucrose buffer containing 0.001 M EDTA and frozen at −70° C.
The substrate corticosterone was dissolved in methanol and diluted with Tris buffer to a final concentration of 200 μM. The inhibitors were also dissolved in methanol and diluted with buffer to a final concentration of 1 μM. […] Corticosterone (200 μM) was incubated with inhibitor (1 μM) and mitochondrial enzyme (0.5 mg/0.5 ml) with the addition of a regenerating system consisting of NADP^+ (1 mM), glucose-6-phosphate (7 mM) and glucose-6-Phosphate dehydrogenase (1 IU/0.5 ml). Up to 5 inhibitors per test could be incubated in duplicate. […] After preincubation for 5 minutes (30° C.; water bath), the reaction was started by adding mitochondrial suspension. […] The blind values were admixed with 250 μl of HCl before the enzyme was pipetted in. The steroids were separated off by shaking with 1 ml of ethyl acetate (10 min). After centrifugation (15,000 g, 10 min), 900 μl of the organic phase was shaken with 250 μl 1 N NaOH (10 min), and 800 μl of supernatant was again washed with 250 μl of buffer. […] 18-OH-corticosterone (retention time: 10 min) and corticosterone (retention time: 21 min) were separated. The height of the 18-OH-corticosterone peak was used for evaluation. The percent inhibition of the 18-hydroxylation of corticosterone by the inhibitors was based on the mediums of the control incubation, taking the blind values into account.

[2] = molecular target: T2, CYP11B1 in NCI-H295R (Homo sapiens, UniProt P15538); test: cell-based; conditions: read-out: NCI-H295R CYP11B1 RSS % inhibition
T2 sequence (P15538 25-503): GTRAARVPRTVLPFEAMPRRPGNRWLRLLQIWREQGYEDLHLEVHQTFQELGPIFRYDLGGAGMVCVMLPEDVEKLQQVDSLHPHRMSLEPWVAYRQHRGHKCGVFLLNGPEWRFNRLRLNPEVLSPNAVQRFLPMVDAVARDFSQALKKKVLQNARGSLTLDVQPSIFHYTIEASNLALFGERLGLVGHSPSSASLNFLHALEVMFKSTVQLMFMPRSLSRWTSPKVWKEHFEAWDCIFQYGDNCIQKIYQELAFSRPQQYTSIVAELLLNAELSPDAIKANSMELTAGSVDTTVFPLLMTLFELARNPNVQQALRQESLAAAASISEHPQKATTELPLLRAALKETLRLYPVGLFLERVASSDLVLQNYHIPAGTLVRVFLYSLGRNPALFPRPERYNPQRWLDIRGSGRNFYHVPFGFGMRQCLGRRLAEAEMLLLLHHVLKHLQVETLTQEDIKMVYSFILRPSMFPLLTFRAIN
Experimental: (§1) For testing inhibitors, a preincubation for one hour was performed first, followed by starting the enzyme reactions by adding substrate (500 nM).
(§2) A) Seeding: The cell lines were grown and passaged until a confluent cell lawn had formed. By tryptic treatment, the cell material of at least two culture dishes was obtained, and the number of cells determined by means of a CASY TT cell counter (150 μl capillary). […] With the cell material of two confluently grown culture dishes, two 24-well plates could be coated. After 24 hours, the cells had grown on, and after another 24 hours' stimulation phase with a solution containing potassium ions (final concentration: 20 mM KCl), could be employed for the test.
(§3) Of this solution, 5 μl each was added to the samples.
(§4) Then, the 24-well plate was stored in a CO2 incubator at 37° C. and […]. The incubation time was 3 hours when deoxycorticosterone was used as the substrate, 24 Hours for corticosterone, and 48 hours for deoxycortisol.
Test stop: After elapse of the incubation times, the plates were briefly swung, and then the content of the wells was removed quantitatively if possible and inactivated by mixing with 1000 μl of dichloromethane in a 2 ml Eppendorf vessel. After 10 minutes of shaking, it was centrifuged for phase separation, and the […], organic phase was transferred into a 1.5 ml Eppendorf vessel. […]

[3] = molecular target: T3, CYP11B2 in NCI-H295R (Homo sapiens, UniProt P19099); test: NCI-H295R cells, CYP11B2 inhibition (substrates corticosterone B or deoxycorticosterone DOC); type: cell-based; conditions: for inhibition at 2.5 µM: NCI-H295R
T3 construct: contain 5 steroidogenic CYP450 enzymes, including 17-alpha-hydroxylase, CYP11B1 and CYP11B2; endogenous in cells; host or cells: NCI-H295R
T3 sequence (P19099 25-503): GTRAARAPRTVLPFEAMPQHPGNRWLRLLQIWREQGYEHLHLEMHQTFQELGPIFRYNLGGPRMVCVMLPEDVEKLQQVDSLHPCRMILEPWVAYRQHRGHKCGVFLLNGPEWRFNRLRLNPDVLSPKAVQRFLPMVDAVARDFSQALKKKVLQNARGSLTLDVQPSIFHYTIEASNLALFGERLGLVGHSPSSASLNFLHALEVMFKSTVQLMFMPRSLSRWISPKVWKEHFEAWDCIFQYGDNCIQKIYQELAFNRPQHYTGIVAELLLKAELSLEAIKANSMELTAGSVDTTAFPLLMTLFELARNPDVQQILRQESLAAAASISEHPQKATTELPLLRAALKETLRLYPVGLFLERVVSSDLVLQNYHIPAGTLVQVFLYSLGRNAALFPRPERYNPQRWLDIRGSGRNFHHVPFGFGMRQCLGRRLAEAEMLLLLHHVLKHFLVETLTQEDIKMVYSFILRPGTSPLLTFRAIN
Experimental: as §1, §2
In the substrate solutions for the examinations on CYP11B2, the corticosterone substrate solution (final concentration in the test: 500 nM) consisted of 38.4 μl of [1,2-^3H(N)]corticosterone (1 mCi/ml, 76.5 Ci/mmol; NEN-Perkin-Elmer) in ethanol, 39.0 μl of unlabeled corticosterone solution (0.5 mM in ethanol) and 122.6 μl of ethanol. Deoxycorticosterone, which was also employed in a final concentration of 500 nM, was composed of 18 μl of [^14C]-labeled deoxycorticosterone (60.0 mCi/mmol; 0.5 nCi/μl) in ethanol in admixture with 54 μl of unlabeled substance (0.5 mM in ethanol) and 228 μl of ethanol.
as §3, §4
Test stop: After elapse of the incubation times, the plates were briefly swung, and then the content of the wells was removed quantitatively if possible and inactivated by mixing with 1000 μl of dichloromethane in a 2 ml Eppendorf vessel. After 10 minutes of shaking, it was centrifuged for phase separation, and the […], organic phase was transferred into a 1.5 ml Eppendorf vessel.
After evaporating the solvent over night under a hood, the residue was taken up in 10 μl of chloroform and applied to the center of the concentration zone of an HPTLC plate.
For detecting the steroids on the TLC, the radiation-exposed film was scanned in the phosphoimager FLA 3000 after two days.
For the substrate corticosterone, equation 5 was valid: […]

In the case of Cl.Clc1ccc2c(c1)CC/C2=C\c1cnc[nH]1 [Compound 48a, 5-[(E)-(5-Chloro-2,3-dihydro-1H-indene-1-ylidene)methyl]-1H-imidazolium chloride], the inhibition at 1 µM [1] is reported as 45%.
With Fc1ccc2c(c1)CC/C2=C/c1cccnc1 [Compound 5b, 3-[(Z)-(5-Fluoro-2,3-dihydro-1H-indane-1-ylidene)methyl]pyridine Hydrochloride] the inhibition at 2.5 µM [2] was 73.1%, the IC50 ([3]; K+ stimulation 20 mM, substrate [3H]-corticosterone (B) 500 nM, incubation 24 h, read-out: NCI-H295R CYP11B2 B [IC50]) was 17 µM and the inhibition at 2.5 µM ([3]; read-out: NCI-H295R CYP11B2 B % inhibition) was 6.9%. It also gave an inhibition at 2.5 µM ([3]; read-out: NCI-H295R CYP11B2 DOC % inhibition) of 89.2% and an IC50 ([3]; substrate [14C]deoxycorticosterone (DOC) 500 nM, incubation 3 h, read-out: NCI-H295R CYP11B2 DOC [IC50]) of 0.156 µM.
With “5-[(Z)-3,4-Dihydronaphth-1(2H)-ylidenemethyl]-1H-imidazolium oxalate [Compound 41b]” the “% Inhibition bovine bCYP11B” value [1] was 95%.
For “5-[(Z)-(5-Chloro-2,3-dihydro-1H-indene-1-ylidene)methyl]-1H-imidazolium oxalate [Compound 48b]”, the “% Inhibition bovine bCYP11B” value [1] was 87%.
In the case of C(=C1\CCc2ccccc21)/c1cnc[nH]1 [Compound 42b, 5-[(Z)-2,3-Dihydro-1H-ind-1-ylidenemethyl]-1H-imidazolium oxalate], the “% Inhibition bovine bCYP11B” value [1] is reported as 94% and the inhibition at 1 µM [1] is reported as roughly 90%.
Work on C(=C1/CCc2ccccc21)/c1cnc[nH]1 [Compound 42a, 5-[(E)-2,3-Dihydro-1H-indane-1-ylidenemethyl]-1H-imidazole] yielded an inhibition at 1 µM [1] of 62%.
For C(=C1/CCCc2ccccc21)/c1cnc[nH]1 [Compound 41a, 5-[(E)-3,4-Dihydronaphth-1(2H)-ylidenemethyl]-1H-imidazole], the inhibition at 1 µM [1] was 40%.
With “5-[(Z)-(5-Bromo-2,3-dihydro-1H-indene-1-ylidene)methyl]-1H-imidazolium oxalate [Compound 49b]” the “% Inhibition bovine bCYP11B” value [1] was 88%.
Work on Brc1ccc2c(c1)CC/C2=C\c1cnc[nH]1.Cl [Compound 49a, 5-[(E)-(5-Bromo-2,3-dihydro-1H-indene-1-ylidene)methyl]-1H-imidazolium chloride] yielded an inhibition at 1 µM [1] of 63%.
For “5-[(E)-(6-Chloro-3,4-dihydronaphth-1(2H)-ylidene)methyl]-1H-imidazolium chloride [Compound 46a]”, the “% Inhibition bovine bCYP11B” value [1] was 66%.
